Series [1] has as its target Transient receptor potential cation channel subfamily V member 1 (Homo sapiens, UniProt Q8NER1). Kind of series: Antagonist activity at human TRPV1 expressed in CHOluc9aeq cells assessed as inhibition of capsaicin-stimulated response by aequorin and CRE-lucifearase reporter gene assay. Format: functional, cell-based.
Series [2] is described as follows: AUC in rat at 1 mg/kg, po. Format: ADME, organism-based. Also noted: dose 1 mg/kg, route oral. Conditions: plasma.
Series [3] can be described thus: Oral bioavailability in rat at 1 mg/kg. The format is ADME, organism-based. As to conditions: in vivo.
A further series deals with Plasma. Nature of the series: Unbound fraction in rat plasma. The format is ADME, cell-free.

Chain of Transient receptor potential cation channel subfamily V member 1 (Q8NER1 whole entry): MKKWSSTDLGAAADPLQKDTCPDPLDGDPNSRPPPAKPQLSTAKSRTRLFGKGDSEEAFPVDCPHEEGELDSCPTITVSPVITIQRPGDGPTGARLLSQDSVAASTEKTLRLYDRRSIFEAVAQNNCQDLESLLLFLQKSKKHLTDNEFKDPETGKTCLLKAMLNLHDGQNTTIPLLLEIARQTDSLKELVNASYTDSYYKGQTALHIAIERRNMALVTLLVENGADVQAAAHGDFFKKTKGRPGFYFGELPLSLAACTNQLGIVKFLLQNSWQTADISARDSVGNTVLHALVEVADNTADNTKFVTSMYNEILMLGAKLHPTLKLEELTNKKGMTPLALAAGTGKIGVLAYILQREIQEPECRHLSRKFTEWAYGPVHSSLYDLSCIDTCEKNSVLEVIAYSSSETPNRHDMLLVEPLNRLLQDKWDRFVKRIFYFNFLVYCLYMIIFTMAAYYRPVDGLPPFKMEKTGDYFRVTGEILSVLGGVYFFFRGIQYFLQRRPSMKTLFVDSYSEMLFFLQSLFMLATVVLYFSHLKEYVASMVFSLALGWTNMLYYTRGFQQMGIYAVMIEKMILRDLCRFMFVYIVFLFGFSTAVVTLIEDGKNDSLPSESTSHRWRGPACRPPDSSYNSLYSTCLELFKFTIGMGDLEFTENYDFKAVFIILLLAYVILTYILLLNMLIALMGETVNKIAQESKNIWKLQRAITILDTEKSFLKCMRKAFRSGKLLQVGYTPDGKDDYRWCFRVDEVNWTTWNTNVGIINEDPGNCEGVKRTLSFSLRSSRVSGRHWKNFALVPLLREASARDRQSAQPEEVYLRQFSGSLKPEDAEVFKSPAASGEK

As to `O=C(Nc1ccc(Cl)c(C(F)(F)F)c1)Nc1cccc2cc(O)ccc12`, the concentration for half-maximal inhibition (IC50) in series [1] came to 18 nM.

As to `O=C(Nc1ccc(Cl)c(C(F)(F)F)c1)Nc1cccc2c(O)cccc12`, in series [1], the IC50 stood at 45 nM.

`O=C(Nc1ccc(Cl)c(C(F)(F)F)c1)Nc1cccc2ccc(O)c(F)c12`: the IC50 in series [1] came to 9.1 nM.

For `O=C(Nc1ccc(Cl)c(C(F)(F)F)c1)Nc1cccc2ccc(C(=O)O)cc12`, the half-maximal inhibitory concentration (IC50) in series [1] was 84 nM.

For the molecule `O=C(Nc1ccc(Cl)c(C(F)(F)F)c1)Nc1ccc2ccc(O)cc2c1`, the IC50 in series [1] is 130 nM.

Take `Nc1ccc2cccc(NC(=O)Nc3ccc(Cl)c(C(F)(F)F)c3)c2c1`: in series [2], the AUC was 217 ng·h/mL. The IC50 in series [1] came to 34 nM.

In series [2], `CNc1ccc2cccc(NC(=O)Nc3ccc(Cl)c(C(F)(F)F)c3)c2c1` showed an AUC of 125 ng·h/mL. Moreover, the IC50 in series [1] is 30 nM.

`O=C(Nc1ccc(Cl)c(C(F)(F)F)c1)Nc1cccc2ccc(NCc3ccccc3)cc12` showed an area under the curve (AUC) in series [2] of 12 ng·h/mL. Moreover, in series [1], the IC50 came out at 140 nM.

In the case of `Nc1cc2c(NC(=O)Nc3ccc(Cl)c(C(F)(F)F)c3)cccc2cc1Cl`, in series [1], the IC50 is over 1000 nM.

Molecule `CC(=O)Nc1ccc2cccc(NC(=O)Nc3ccc(Cl)c(C(F)(F)F)c3)c2c1` came in with an AUC in series [2] of 1590 ng·h/mL. In series [1], the IC50 stood at 530 nM.

For `CS(=O)(=O)Nc1ccc2cccc(NC(=O)Nc3ccc(Cl)c(C(F)(F)F)c3)c2c1`, the area under the curve (AUC) in series [2] is 709 ng·h/mL. Also, in series [1], the IC50 was over 1000 nM.

As to `NS(=O)(=O)c1ccc2cccc(NC(=O)Nc3ccc(Cl)c(C(F)(F)F)c3)c2c1`, the half-inhibitory concentration (IC50) in series [1] was determined as 710 nM.

Turning to `NS(=O)(=O)Cc1ccccc1NC(=O)Nc1ccc(Cl)c(C(F)(F)F)c1`, the IC50 in series [1] is 460 nM.

For `NS(=O)(=O)c1ccccc1NC(=O)Nc1ccc(Cl)c(C(F)(F)F)c1`, the IC50 in series [1] is over 1000 nM.

On to `O=C(Nc1ccc(Cl)c(C(F)(F)F)c1)Nc1cccc2cc[nH]c12`, for which the exposure (AUC) in series [2] worked out at 176 ng·h/mL. Besides, in series [1], the IC50 amounted to 67 nM.

As to `O=C(Nc1ccc(Cl)c(C(F)(F)F)c1)Nc1cccc2nn[nH]c12`, the concentration for half-maximal inhibition (IC50) in series [1] worked out at 180 nM.

On to `O=C(Nc1ccc(Cl)c(C(F)(F)F)c1)Nc1cccc2[nH]ccc12`, for which the area under the curve (AUC) in series [2] amounted to 530 ng·h/mL. Further, in series [1], the concentration for half-maximal inhibition (IC50) turned out to be 33 nM.

Turning to `O=C(Nc1ccc(Cl)c(C(F)(F)F)c1)Nc1cccc2nc(C(F)(F)F)[nH]c12`, in series [1], the 50% inhibitory concentration (IC50) is 32 nM.

Regarding `Cc1nc2cccc(NC(=O)Nc3ccc(Cl)c(C(F)(F)F)c3)c2[nH]1`, the concentration for half-maximal inhibition (IC50) in series [1] is 58 nM.

Take `O=C(Nc1ccc(Cl)c(C(F)(F)F)c1)Nc1ccccc1CCCO`: the half-inhibitory concentration (IC50) in series [1] was 220 nM.

The molecule `O=C(Nc1ccc(Cl)c(C(F)(F)F)c1)Nc1ccccc1CCO` registered an area under the curve (AUC) in series [2] of 374 ng·h/mL. Besides, in series [1], the IC50 came out at 56 nM.

`O=C(Nc1ccc(Cl)c(C(F)(F)F)c1)Nc1ccccc1CO`: the IC50 in series [1] was 330 nM.

Take `NCCc1ccccc1NC(=O)Nc1ccc(Cl)c(C(F)(F)F)c1`: the half-maximal inhibitory concentration (IC50) in series [1] is over 1000 nM.

As to `O=C(Nc1cccc(CCO)c1)Nc1ccc(Cl)c(C(F)(F)F)c1`, the area under the curve (AUC) in series [2] was 75 ng·h/mL. For the same molecule, in series [1], the 50% inhibitory concentration (IC50) amounted to 230 nM.

Take `Cc1cccc(NC(=O)Nc2ccc(Cl)c(C(F)(F)F)c2)c1CCO`: the IC50 in series [1] was found to be 16 nM.

Regarding `O=C(Nc1ccc(Cl)c(C(F)(F)F)c1)Nc1cccc2c1CC(O)CC2` (racemic), in series [2], the AUC was 650 ng·h/mL. In series [3], this molecule gave a bioavailability of 74%. In addition, the Fu with Plasma was 0.28%.

As for `O=C(Nc1ccc(Cl)c(C(F)(F)F)c1)Nc1cccc2c1CC(CO)CC2` (racemic), the half-maximal inhibitory concentration (IC50) in series [1] came out at 87 nM.

In the case of `CC1CCc2cccc(NC(=O)Nc3ccc(Cl)c(C(F)(F)F)c3)c2C1` (racemic), the half-maximal inhibitory concentration (IC50) in series [1] amounted to 93 nM.

The record behind these values is ChEMBL document CHEMBL2021792, “Tetrahydro-naphthols as orally available TRPV1 inhibitors” (Bioorg Med Chem Lett, 2012).
